Data: patent US20250115595A1, “INHIBITORS OF HYPOXIA-INDUCIBLE FACTORS” (The Johns Hopkins University, priority 2021, published 2025)

Columns and labels:
C57BL/6 mice = experiment: Safety after systemic (IP) dosing: fundus/angiography, ERG, tissue histology; type: in vivo, mouse
Protocol: Fundus photos and fluorescein angiographic images of the retina of C57BL/6 mice on day 30 following 5 daily intraperitoneal (IP) injections (day 0 to day 5) with 32-134D at 40 or 80 mg/kg compared to vehicle control (FIG. 17).
ERG measurements taken in C57BL/6 mice at day 7 (D7) and day 14 (D14) following 5 daily IP injections (day 0 to day 5) with vehicle control (Veh) or 32-134D at 20, 40, or 80 mg/kg/day.
To survey for possible organ damage following systemic administration, three-month-old mice were treated with the 80 mg/kg/day of 32-134D by IP injection for five consecutive days (days 0-4). On day 30, mice were sacrificed, perfused with PBS, and tissues were harvested and fixed in 4% paraformaldehyde (PFA). Harvested tissues included the brain, heart, muscle, liver, spleen, kidney, stomach, small intestine, and large intestine. Tissues were embedded with paraffin, sectioned at […], and stained with hematoxylin and eosin. Images were taken at 20× magnification.
Flash scotopic ERGs: All procedures were performed under dim red light. Mice were dark adapted overnight, anesthetized with ketamine (50 mg/kg) and xylazine (5 mg/kg) and pupils were dilated with a topical drop of tropicamide (1%). Scotopic ERG responses were measured using the Celeris ERG stimulator (Diagnosys, Lowell, MA) at flash intensities of 0.025, 0.25, 2.5, 7.96, and 79.06 cd/s/m2. ERGs were measured simultaneously from both eyes with a ground electrode placed into the forehead between the eyes and a reference electrode into the hip.
Fluorescein angiography in mice: To evaluate the effect of 32-134D on the retinal vasculature and vascular permeability, experimental animals were treated with 5 consecutive daily IP injections with 32-134D at 40 or 80 mg/kg. On day 30, mice were anesthetized using intramuscular injection with ketamine (50 mg/kg) and xylazine (5 mg/kg). Pupils were then dilated using 1% tropicamide eye drops and mice were placed on the imaging platform of the Phoenix Micron III retinal imaging microscope (Phoenix Research Laboratories, Pleasanton, CA). Goniovisc 2.5% (hypromellose; Sigma Pharmaceuticals, LLC, Monticello, IA) was applied liberally to keep the eye moist during imaging studies. Fundus photos were taken before administering 10 to 20 μl of 10% fluorescein sodium (Apollo Ophthalmics, Newport Beach, CA) IP injection. Rapid acquisition of fluorescein angiographic images was then performed for 5 minutes. Fluorescein leakage manifests as indistinct vascular borders progressing to diffusely hazy fluorescence. Fluorescein leakage was compared between different groups by quantifying the fluorescence intensities collected after 1, 2, and 3 minutes following fluorescein injection using ImageJ software (National Institutes of Health, Bethesda, MD).

STZ mice = experiment: STZ diabetic mouse model, intraperitoneal dosing; type: in vivo; conditions: 5 daily IP injections 40 mg/kg
Protocol: The ability of 32-143D to inhibit vascular permeability in diabetic patients was evaluated using the streptozotocin (STZ) model for diabetic macular edema. 8-to-10-week-old C57BL/6 mice were administered STZ by IP injection. Hyperglycemia (serum glucose >250 mg/dL) was confirmed by glucometer 2 weeks later. After 6 months of sustained hyperglycemia, mice were treated with 5 daily IP injections with 32-134D at 40 mg/kg or with vehicle control. 24 hours after the fifth IP injection, mice were euthanized, Evans blue perfusion was performed, and retina flat mounts were examined for vascular leakage.
Vascular permeability by Evans blue tracer method: Mice were anesthetized with a mixture of ketamine (50 mg/kg) and xylazine (5 mg/kg) and subjected to Evans blue (Sigma) (50 mg/kg) perfusion by penile vein injection. […] Images were captured by Zeiss fluorescent microscope or confocal microscopy and fluorescence quantified by image J software (NIH). […] Blinded quantification of the number of leaking vessels was performed by manual counting major leakage from capillaries from retinas of each group. Non-capillary artifactual Evans blue or FITC-dextran leakage due to flat mount processing as well as minor leakages were not included in the quantitation. […] Random fields were chosen from retinas where leakages were absent to determine baseline fluorescence that arise from capillaries. […]

OIR mice = experiment: OIR mouse model, intraperitoneal dosing; type: in vivo
Protocol: The ability of 32-143D to inhibit ischemia-induced retinal neovascularization was evaluated using the oxygen-induce retinopathy (OIR) model for retinal neovascularization in ischemic retinal diseases, such as retinopathy of prematurity, proliferative diabetic retinopathy, ischemic retinal vein occlusions, or sickle cell retinopathy. Postnatal day 7 (P7) newborn C57BL/6 pups were exposed to hyperoxia (75% O2) for 5 consecutive days before being returned to room air at P12. Beginning at P13, pups were treated with […] IP injections with 32-134D at 20 mg/kg or with vehicle control. 24 hours after the fifth IP injection, at P17, retinal flat mounts were stained with isolectin-B4 to examine the development of retinal neovascularization.
OIR mouse model: OIR experiments were performed as previously described (M. Rodrigues et al., 2013, Diabetes 62, 3863-3873). Briefly, C57BL/6 mice were placed in 75% O2 on P7. On P12, the mice were returned to room air and administered either by IP injection (digoxin and test compound) or by intravitreal injection. Mice with body weight less than 6 g at P17 were excluded from analysis. The data were collected from both males and females and the results combined, as there was no apparent difference between sexes. Representative images for selected time points from a minimum of three independent experiments are shown. Data from 3-8 pups were obtained at each time point.

[1] = 5 daily IP injections 20, 40 or 80 mg/kg/day, D7 and D14
[2] = daily IP injections 20 mg/kg from P13, P17

In the case of `Brc1ccc2c(-c3csc(-c4c[nH]c5c(Br)cccc45)n3)c[nH]c2c1` [Compound 32-134D, 4-(6-bromo-1H-indol-3-yl)-2-(7-bromo-1H-indol-3-yl)thiazole], the “tissue histology (brain, heart, muscle, liver, spleen, kidney, stomach, intestines)” value (C57BL/6 mice; 80 mg/kg/day IP for five days, day 30) was “no evidence of toxicity”, the “ERG a-wave versus vehicle” value (C57BL/6 mice; [1]) was “no statistically significant difference” and the “ERG b-wave versus vehicle” value (C57BL/6 mice; [1]) was “no statistically significant difference”. For the same molecule, the “fundus photos and fluorescein angiography of retina” value (C57BL/6 mice; 5 daily IP injections 40 or 80 mg/kg, day 30) was “intact retinal vasculature and absence of capillary leakage”, the “vascular leakage (Evans blue fluorescence intensity)” value (STZ mice) was “significantly decreased vascular leakage” and the “area of avascular retina” value (OIR mice; [2]) was “not significantly different”. For the same molecule, the retinal neovascularization (OIR mice; [2]) was “significant decrease in neovascularization”, the “mRNA expression of key HIF-regulated vasoactive mediators” value (OIR mice; five consecutive (P12-P16) IP injections, 20 mg/kg, P17) was “marked reduction” and the “HIF-1α and HIF-2α protein accumulation in retina” value (OIR mice; single IP injection, as little as 20 mg/kg, P13 and P14) was “reduction”.
